Test results reported in patent US20250255923A1, “METHODS FOR EXTRACTING MELATONIN AND COMPOSITIONS THEREOF” (priority 2023, published 2025).

Columns and labels:
Assay type in all cases: in vivo
mice [1] = experiment: Sleep induced by over-threshold dose of pentobarbital sodium in mice; settings: pentobarbital sodium 40 mg/kg 60 min after last dose, twice daily for three days, Diazepam 20 mg/kg BW, Tomato Extract 3 mg/kg BW (melatonin content), Synthesized Melatonin 5 mg/kg BW; for Number of Mice that Fell Asleep: 10 mice, within 30 minutes
mice [2] = experiment: Sleep induced by sub-threshold dose of pentobarbital sodium in mice; settings: pentobarbital sodium 25 mg/kg 60 min after last dose, twice daily for three days, Diazepam 20 mg/kg BW, Tomato Extract 3 mg/kg BW (melatonin content), Synthesized Melatonin 5 mg/kg BW; for Number of Mice that Fell Asleep: 10 mice, within 30 minutes
mice [3] = experiment: Threshold dose experiment of pentobarbital sodium (sleep rate within 30 minutes post-injection); settings: for Sleep Rate (%) / Number of Mice that Fell Asleep: within 30 minutes; for Number of Mice that Fell Asleep: 10 mice
Protocol: Threshold Dose Experiment of Pentobarbital Sodium: A total of 40 mice were randomly divided into four groups, with 10 mice in each group. Each group received an intraperitoneal injection of pentobarbital sodium at the following doses: 25 mg/kg bodyweight (BW), 30 mg/kg BW, 35 mg/kg BW, and 40 mg/kg BW. The sleep rates of the mice were recorded within 30 minutes post-injection.
Based on the experimental results, it appears that the lower threshold dose of pentobarbital sodium is 25 mg/kg BW (“sub-threshold dose”). Based on the experimental results, it appears that the upper threshold dose of pentobarbital sodium is 40 mg/kg BW (“over-threshold dose”). The lower threshold was used for subsequent studies.

[4] = mice, intraperitoneal, sleep within 30 minutes

SMILES | Sleep Latency (mice [1]) [min] | Sleep Rate (%) (mice [1]) | Total Sleep Duration (mice [1]) [min] | Number of Mice that Fell Asleep (mice [1]) | Sleep Latency (mice [2]) [min] | Sleep Rate (%) (mice [2]) | Total Sleep Duration (mice [2]) [min] | Number of Mice that Fell Asleep (mice [2]) | Sleep Rate (%) (mice [3]; 25 mg/kg BW intraperitoneal) | Number of Mice that Fell Asleep (mice [3]; 25 mg/kg BW intraperitoneal) | Sleep Rate (%) (mice [3]; 30 mg/kg BW intraperitoneal) | Number of Mice that Fell Asleep (mice [3]; 30 mg/kg BW intraperitoneal) | Sleep Rate (%) (mice [3]; 35 mg/kg BW intraperitoneal) | Number of Mice that Fell Asleep (mice [3]; 35 mg/kg BW intraperitoneal) | Sleep Rate (%) (mice [3]; 40 mg/kg BW intraperitoneal) | Number of Mice that Fell Asleep (mice [3]; 40 mg/kg BW intraperitoneal) | lower threshold dose (sub-threshold dose) (mice [3]; [4]) [mg/kg BW] | upper threshold dose (over-threshold dose) (mice [3]; [4]) [mg/kg BW]
COc1ccc2[nH]cc(CCNC(C)=O)c2c1 [Chemically Synthesized Melatonin, N-acetyl-5-methoxytruptamine] | 4.53 | 100 | 62.56 | 10 | 6.33 | 100 | 21.56 | 10 | – | – | – | – | – | – | – | – | – | –
CN1C(=O)CN=C(c2ccccc2)c2cc(Cl)ccc21 [Diazepam] | 5.13 | 100 | 58.23 | 10 | 7.89 | 100 | 19.23 | 10 | – | – | – | – | – | – | – | – | – | –
CCCC(C)C1(CC)C(=O)NC(=O)NC1=O (stereo not shown) [Pentobarbital Sodium, pentobarbital sodium] | 12.69 | 100 | 13.50 | 10 | 12.37 | 10 | 11.50 | 1 | 10 | 1 | 50 | 5 | 80 | 8 | 100 | 10 | 25 | 40
